In patent publication US11369665B2, “Anti-inflammatory peptides and composition comprising the same” (GemVax & KAEL Co., Ltd., priority 2012, dated 2022):

Assays:
TNF-α = TNF-α ELISA in LPS-stimulated PBMC-derived monocytes; type: cell-based, human; conditions: LPS 10 ng/ml 2 hrs, starved 1 hr, 4 uM for 2 hrs, ELISA of culture medium
Description: PBMC (peripheral blood mononuclear cell) was separated from the blood samples (50 ml) collected from healthy subjects using Ficoll-Paque™ PLUS (CYTIVA™, Piscataway, N.J., USA). PBMCs were then enriched in complete RPMI 1640 medium containing 20% of human serum, followed by transferring to 100 mm polystyrene cell culture plate coated with human serum for 30 mins. […]
To see the effect of PEP-1 on TNF-α level in terms of protein expression level. […] After culturing, cell soup was collected, and the amount of TNF-α was measured using ELISA kit (R&D, Minneapolis, Minn., USA) as follows:
TNF measurement uses sandwich ELISA method. […] Again, plate was washed, and avidin/biotin was added for measuring the absorbance. TNF-α level of each sample was quantified using the standard graph calculated from the absorbance of standard solution.
PBMC-derived monocytes were stimulated with endotoxin LPS (10 ng/ml) for 2 hrs, starved for 1 hr using OPTI-MEM®, and then 4 uM of FITC, FITC-TAT, PEP 1-FITC and FITC-PEP 1 were treated for 2 hrs. After incubation, TNF-α level was measured with cell culture medium using ELISA.

neural stem cells = test: Amyloid-β toxicity assessment on neural stem cells; type: cell-based, rat; conditions: 20 μM amyloid-β protein, 48 hours
Description: After removing the cortex from the head of an embryonic rat that had been pregnant for 13 days, it was cultured for a week with Basic Fibroblast Growth Factor (bFGF) to obtain the neural stem cells. To analyze the effects of the amyloid-β protein on the neural stem cells, the pre-oligomerized amyloid-β protein of concentrations 0 to 40 μM was treated on neural stem cells for 48 hours, then CCK-8 assay, BrdU, and TUNEL assay were used for cytotoxicity assessment (refer from BA Yankner et al, 1990 and K N Dahlgren et al, 2002).

GADD 153 = test: 2D-electrophoresis protein expression in neural stem cells; type: cell-based, rat; conditions: 20 ug β-amyloid treated group, versus negative control 1.0
Description: (§1) Protein expression level of PEP-1 treated group and untreated group was analyzed by 2D-electrophoresis technique and antibody microarray technique. Prepared 200 μg by extracting proteome from the neural stem cells cultured in Experiment 3-1 of Example 3. In addition, the group in which PEP-1 was not treated was used as the comparison group in the same condition.
(§2) 2D-electrophoresis was performed using 12% acrylamide gels. First gel electrophoresis was performed at PI 4˜10 N, using a gel size of 8.5×7 cm. After electrophoresis, it was dyed with Colloidal Coomassie Blue, and then compared expression by using PDQuest software to analyze each spot.
(§3) Difference in the expression levels of more than 1.5 times was identified using MALDI-TOF MS (Matrix Desorption/Ionization Time of Flight Mass Spectromestry). Among these, proteins correlated with inflammation-related signaling, such as i-NOS and HMGB-1 were identified (Refer to Table 6). The changes in protein expression levels either increased or decreased by 1.5 times by amyloid-β protein, but it was confirmed that expression level was regulated close to that of negative control when PEP-1 was added (Refer to FIGS. 14A-14B).
(§4) The Table 6 below is an analysis of expression levels of proteins associated with inflammation by 2D electrophoresis technique. The control group represents protein expression level of cells that were not treated with neither amyloid-β protein nor PEP-1.

HMGB1 = test: as above; type: cell-based, rat; conditions: 20 ug β-amyloid treated group, versus negative control 1.0
Description: as §1, §2, §3, §4

HSP 70 = test: as above; type: cell-based, rat; conditions: 20 ug β-amyloid treated group, versus negative control 1.0
Description: as §1, §2, §3, §4

HSP 90 = test: as above; type: cell-based, rat; conditions: 20 ug β-amyloid treated group, versus negative control 1.0
Description: as §1, §2, §3, §4

MAP Kinase = test: as above; type: cell-based, rat; conditions: 20 ug β-amyloid treated group, versus negative control 1.0
Description: as §1, §2, §3, §4

Pyk2 = test: as above; type: cell-based, rat; conditions: 20 ug β-amyloid treated group, versus negative control 1.0
Description: as §1, §2, §3, §4

e-NOS = test: as above; type: cell-based, rat; conditions: 20 ug β-amyloid treated group, versus negative control 1.0
Description: as §1, §2, §3, §4

i-NOS = test: as above; type: cell-based, rat; conditions: 20 ug β-amyloid treated group, versus negative control 1.0
Description: as §1, §2, §3, §4

Row | Substance | TNF-α level (TNF-α) [ng/mL] | cell survival (neural stem cells) [%] | GADD 153 expression (fold) (GADD 153) | HMGB1 expression (fold) (HMGB1) | HSP 70 expression (fold) (HSP 70) | HSP 90 expression (fold) (HSP 90) | MAP Kinase expression (fold) (MAP Kinase) | Pyk2 expression (fold) (Pyk2) | e-NOS expression (fold) (e-NOS) | i-NOS expression (fold) (i-NOS)
1 | Fluorescein Isothiocyanate [FITC] | 6.2 |  |  |  |  |  |  |  |  | 
2 | amyloid-β protein [reference compound] |  | 60 | 1.6 | −1.5 | −2.3 | −1.8 | 2.2 | 2.0 | 1.9 | 1.9
